# According to the supplement of paper PMC10331698:
# ± gives the standard deviation of the averaged measurements.
# Legend:
# Test in all cases: level (log10 ratio to DMSO vehicle control); higher = higher biomarker level / cell amount than vehicle control
# [1] = compound: OCCC(F)(F)C(F)(F)C(F)(F)C(F)(F)C(F)(F)C(F)(F)F [6:2 Fluorotelomer alcohol]; conditions: in DMSO
# Experimental: (§1)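 BioMAP Diversity Plus panel of 12 human primary cell co-culture systems (3C, 4H, LPS, SAg, BT, BF4T, BE3C, CASM3C, HDF3CGF, KF3CT, MyoF, Mphg). Compounds were added 1 h before stimulation and left for 24 h (MyoF 48 h; BT 72 h for soluble read-outs or 6 d for IgG). Biomarkers were read by ELISA, cytotoxicity by SRB, PBMC viability and proliferation by Alamar Blue. Each well value was divided by the mean of 8 DMSO control wells on the same plate and log10 transformed; duplicate blinded samples were tested at 4 concentrations.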
# [2] = compound: O=C(O)C(F)(F)OC(F)(F)C(F)(F)OC(F)(F)F [Perfluoro-3,6-dioxaheptanoic acid]; conditions: in DMSO
# Experimental: as §1
# Perfluoropentanoic acid = compound: O=C(O)C(F)(F)C(F)(F)C(F)(F)C(F)(F)F [Perfluoropentanoic acid]; conditions: in DMSO
# Experimental: as §1
# [3] = compound: OCCCC(F)(F)C(F)(F)C(F)(F)C(F)(F)C(F)(F)C(F)(F)C(F)(F)F [7:3 Fluorotelomer alcohol]; conditions: 6700 nM; in DMSO
# Experimental: as §1
# [4] = compound: O=C(O)C(F)(F)C(F)(F)C(F)(F)C(F)(F)C(F)(F)C(F)(F)C(F)(F)C(F)F [9-H-Perfluorononanoic acid]; conditions: in DMSO
# Experimental: as §1
# [5] = compound: C=CC(=O)OCC(F)(F)C(F)(F)C(F)(F)C(F)(F)C(F)(F)C(F)(F)C(F)(F)F [1H,1H-Perfluorooctyl acrylate]; conditions: in DMSO
# Experimental: as §1
# [6] = compound: OCC(F)(F)OC(F)(F)C(F)(F)OC(F)(F)CO [1H,1H,8H,8H-Perfluoro-3,6-dioxaoctane-1,8-diol]; conditions: in DMSO
# Experimental: as §1
# [7] = compound: FC(F)(F)C(F)(F)C(F)(F)C(F)(F)C(F)(F)C(F)(F)C(F)(F)C(F)(F)CCS [2-(Perfluorooctyl)ethanthiol]; conditions: in DMSO
# Experimental: as §1
Test System,level (log10) ([1]; 6700 nM),level (log10) ([1]; 20000 nM),level (log10) ([2]; 6700 nM),level (log10) ([2]; 20000 nM),level (log10) ([2]; 60000 nM),level (log10) (Perfluoropentanoic acid; 6700 nM),level (log10) (Perfluoropentanoic acid; 20000 nM),level (log10) (Perfluoropentanoic acid; 60000 nM),level (log10) [3],level (log10) ([4]; 6700 nM),level (log10) ([4]; 20000 nM),level (log10) ([4]; 60000 nM),level (log10) ([5]; 6700 nM),level (log10) ([5]; 20000 nM),level (log10) ([5]; 60000 nM),level (log10) ([6]; 6700 nM),level (log10) ([6]; 20000 nM),level (log10) ([6]; 60000 nM),level (log10) ([7]; 6700 nM),level (log10) ([7]; 20000 nM)
KF3CT:CXCL9/MIG,0.0045 ± 0.0035,0.009,-0.022 ± 0.0071,0.0065 ± 0.013,-0.0035 ± 0.019,-0.002 ± 0.0057,-0.0055 ± 0.0021,0.0085 ± 0.013,0.0015 ± 0.005,-0.008 ± 0.0042,-0.009 ± 0.0028,-0.0045 ± 0.00071,0.005 ± 0.0042,-0.0035 ± 0.0035,0.008 ± 0.0099,0.001 ± 0.011,0.006 ± 0.0085,0.0015 ± 0.0092,0.016 ± 0.018,0.014 ± 0.0042
BE3C:Keratin 8/18,-0.0095 ± 0.0064,-0.0115 ± 0.00071,-0.033 ± 0.041,-0.0085 ± 0.022,-0.03 ± 0.017,-0.006 ± 0.0057,-0.011 ± 0.0071,0.0035 ± 0.032,0.0155 ± 0.032,-0.006 ± 0.0085,0.005 ± 0.0042,-0.012 ± 0.018,-0.011 ± 0.023,-0.0145 ± 0.029,-0.0045 ± 0.022,-0.0105 ± 0.0078,-0.003 ± 0.016,-0.0085 ± 0.013,-0.0025 ± 0.0021,-0.009 ± 0.0014
MyoF:TIMP-1,0.002 ± 0.04,0.0085 ± 0.047,-0.0305 ± 0.097,-0.006 ± 0.079,-0.001 ± 0.044,-0.0195 ± 0.023,-0.043 ± 0.034,-0.002 ± 0.042,0.003 ± 0.017,0.0495 ± 0.044,0.0665 ± 0.019,0.117 ± 0.037,0.0075 ± 0.012,0.037 ± 0.0014,0.0405 ± 0.005,-0.0015 ± 0.036,0.038 ± 0.025,0.052 ± 0.03,-0.033 ± 0.014,-0.0215 ± 0.005
CASM3C:HLA-DR,0 ± 0.025,-0.025 ± 0.023,-0.0355 ± 0.069,-0.0385 ± 0.074,-0.047 ± 0.057,-0.019 ± 0.014,-0.022 ± 0.023,0.003 ± 0.054,0.008 ± 0.0071,-0.01 ± 0.0071,-0.0145 ± 0.0092,0.0025 ± 0.012,0.0075 ± 0.00071,0.002 ± 0.018,0.0045 ± 0.013,0.0315 ± 0.025,0.0075 ± 0.011,0.0045 ± 0.029,-0.0165 ± 0.012,0.003 ± 0.0028
KF3CT:PAI-I,-0.0155 ± 0.0035,-0.0035 ± 0.011,0.0035 ± 0.096,0.009 ± 0.0085,0.008 ± 0.072,0.0005 ± 0.021,-0.003,0.004 ± 0.0057,-0.017 ± 0.025,-0.0045 ± 0.0035,0.007 ± 0.0071,0.003 ± 0.0085,-0.0075 ± 0.00071,-0.01 ± 0.013,-0.0135 ± 0.018,-0.015 ± 0.0028,-0.0095 ± 0.0078,-0.002 ± 0.0099,-0.04,-0.0425 ± 0.023
3C:CD106/VCAM-1,0.0025 ± 0.0092,-0.0075 ± 0.0021,-0.0185 ± 0.019,-0.008 ± 0.0071,-0.001 ± 0.018,0.002 ± 0.023,-0.0055 ± 0.021,0.0235 ± 0.015,0.005 ± 0.0057,-0.025 ± 0.016,-0.018 ± 0.035,-0.0185 ± 0.04,-0.0215 ± 0.023,-0.0245 ± 0.021,-0.012 ± 0.0028,-0.0365 ± 0.021,-0.0295 ± 0.019,-0.016 ± 0.024,-0.016 ± 0.027,-0.0105 ± 0.036
KF3CT:CXCL8/IL-8,0 ± 0.0057,-0.0165 ± 0.005,-0.0075 ± 0.015,0.005 ± 0.011,0.0515 ± 0.033,-0.0025 ± 0.019,-0.0035 ± 0.005,0.016 ± 0.0071,0.0035 ± 0.043,0.0035 ± 0.015,0.0085 ± 0.0078,0.008 ± 0.0071,-0.0205 ± 0.021,-0.0005 ± 0.019,0.0405 ± 0.0021,0.011 ± 0.021,0.0125 ± 0.028,0.016 ± 0.018,-0.026 ± 0.034,-0.028 ± 0.037
CASM3C:CD142/Tissue Factor,0.004 ± 0.014,0.0075 ± 0.0064,-0.049 ± 0.089,-0.0195 ± 0.097,0.014 ± 0.088,-0.002 ± 0.0071,-0.013 ± 0.024,-0.0225 ± 0.056,-0.011 ± 0.016,-0.0025 ± 0.0078,-0.012 ± 0.028,0.006 ± 0.017,0.0095 ± 0.005,-0.004 ± 0.0014,-0.0005 ± 0.0092,-0.014 ± 0.0099,-0.013 ± 0.023,0.0165 ± 0.0064,-0.0015 ± 0.13,-0.0415 ± 0.07
CASM3C:LDLR,0.031 ± 0.011,0.023 ± 0.0028,-0.0145 ± 0.033,-0.013 ± 0.037,-0.0015 ± 0.005,-0.0085 ± 0.0064,-0.0045 ± 0.0078,-0.0095 ± 0.025,0.012 ± 0.0028,-0.003 ± 0.018,-0.005 ± 0.0042,0.009 ± 0.024,0.011,0.006 ± 0.0099,0.016 ± 0.016,0.005 ± 0.0014,0.0055 ± 0.019,0.0235 ± 0.039,-0.025 ± 0.04,-0.0505 ± 0.0092
lMphg:CD106/VCAM-1,-0.016 ± 0.0028,-0.0155 ± 0.013,-0.004 ± 0.02,0.007 ± 0.014,-0.004 ± 0.04,0.005 ± 0.02,0.0125 ± 0.018,0.016 ± 0.0057,-0.009 ± 0.027,-0.008 ± 0.018,0.0185 ± 0.00071,0.0075 ± 0.023,-0.0115 ± 0.022,-0.001 ± 0.018,-0.0145 ± 0.037,-0.0355 ± 0.05,-0.0035 ± 0.012,-0.028 ± 0.034,-0.0055 ± 0.0064,-0.0365 ± 0.011
lMphg:sIL-10,-0.032 ± 0.02,-0.143 ± 0.041,-0.0215 ± 0.0035,0.0045 ± 0.012,-0.108 ± 0.044,-0.017 ± 0.013,-0.075 ± 0.025,-0.0845 ± 0.05,-0.0345 ± 0.032,-0.0465 ± 0.00071,-0.0225 ± 0.04,-0.642 ± 0.04,0.018 ± 0.02,-0.023 ± 0.05,-0.0565 ± 0.042,-0.0295 ± 0.022,-0.0355 ± 0.13,0.0065 ± 0.00071,-0.122 ± 0.065,0.0325 ± 0.046
lMphg:CCL2/MCP-1,-0.019 ± 0.0042,-0.025 ± 0.016,0.0035 ± 0.00071,-0.006 ± 0.0099,0 ± 0.0042,0.038 ± 0.0028,0.0155 ± 0.03,0.0015 ± 0.035,0.001 ± 0.0057,-0.0085 ± 0.0021,-0.0215 ± 0.013,0.014 ± 0.04,-0.0065 ± 0.039,-0.016 ± 0.0057,0.002 ± 0.03,-0.0115 ± 0.0035,-0.0145 ± 0.012,0.0155 ± 0.012,-0.0125 ± 0.0078,-0.003 ± 0.02
